PubChem BioAssay (NCI)
Several values for one entry are separate records, joined by “and”; a condition that tells them apart may be missing. Equal entries are not always repeated.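 How tested: cells in 96-well plates exposed to compound for 48 hours at five concentrations. GI50: concentration for 50% inhibition of growth. TGI: total growth inhibition.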

How the values were obtained:
Test in all cases: NCI tumour cell line growth inhibition, 48 h
[1] = test system: CCRF-CEM leukemia
[2] = test system: COLO 205 colon
[3] = test system: NCI/ADR-RES ovarian
[4] = test system: OVCAR-4 ovarian
[5] = test system: SF-539 CNS
[6] = test system: SK-MEL-28 melanoma
[7] = test system: SK-OV-3 ovarian
[8] = test system: U251 CNS
[9] = test system: UACC-257 melanoma
[10] = test system: UACC-62 melanoma

SMILES	GI50 [1]	TGI [1]	GI50 [2]	TGI [2]	GI50 [3]	TGI [3]	GI50 [4]	TGI [4]	GI50 [5]	TGI [5]	GI50 [6]	TGI [6]	GI50 [7]	TGI [7]	GI50 [8]	TGI [8]	GI50 [9]	TGI [9]	GI50 [10]	TGI [10]
C=CCC(N[C@H](CO)c1ccccc1)c1ccc2ccccc2n1 (some centres not stated)	> 100 µM	> 100 µM	> 100 µM	> 100 µM	> 100 µM	> 100 µM	> 100 µM	> 100 µM	> 100 µM	> 100 µM	> 100 µM	> 100 µM	> 100 µM	> 100 µM	> 100 µM	> 100 µM	> 100 µM	> 100 µM	> 100 µM	> 100 µM
CC(=O)Nc1ccc(C(=O)NN2C(=O)C(Cl)C2c2ccc(Cl)cc2)cc1 (configuration not stated)	–	> 100 µM	–	> 100 µM	–	> 100 µM	–	> 100 µM	–	> 54.2 µM	–	> 100 µM	–	71.9 µM	–	> 56.7 µM	–	> 100 µM	–	> 100 µM
CN[C@@H](C)C(=O)N[C@H](C(=O)N1CCC[C@H]1C(=O)N[C@H]1c2ccccc2C[C@H]1OCC#CC#CCO[C@@H]1Cc2ccccc2[C@@H]1NC(=O)[C@@H]1CCCN1C(=O)[C@@H](NC(=O)[C@H](C)NC)C1CCCCC1)C1CCCCC1	1.1 µM	4.27 µM	1.78 µM	3.55 µM	12 µM	> 100 µM	< 0.01 µM	10.9 µM	< 0.01 µM	1.28 µM	1.8 µM	3.55 µM	< 0.01 µM	< 0.01 µM	1.94 µM	4.79 µM	13.5 µM	28.8 µM	4.57 µM	9.97 µM
Cc1ccccc1NC(=O)N/C(N)=N/c1nc(-c2cccc([N+](=O)[O-])c2)cs1	3 µM	> 100 µM	3.89 µM	> 100 µM	1.82 µM	7.22 µM	3.53 µM	> 100 µM	1.65 µM	3.21 µM	2.55 µM	> 100 µM	2.55 µM	17.8 µM	2.76 µM	10.5 µM	4.85 µM	> 100 µM	2.14 µM	12.8 µM
CC12OC(c3ccccc3)=CC(c3ccc(Cl)cc3)=C1C(c1ccccc1)=CC2=O (configuration not stated)	56.2 µM	> 100 µM	64.9 µM	> 100 µM	55.9 µM	> 100 µM	19 µM	> 100 µM	> 100 µM	> 100 µM	66.5 µM	> 100 µM	> 100 µM	> 100 µM	33.1 µM	> 100 µM	49.3 µM	> 100 µM	49.4 µM	> 100 µM
CCOC(=O)C(Cc1c[nH]c2ccc(N)cc12)(NC(C)=O)C(=O)OCC	656 µM	> 1000 µM	849 µM	> 1000 µM	> 1000 µM	> 1000 µM	> 1000 µM	> 1000 µM	> 1000 µM	> 1000 µM	> 1000 µM	> 1000 µM	> 1000 µM	> 1000 µM	> 1000 µM	> 1000 µM	> 1000 µM	> 1000 µM	> 1000 µM	> 1000 µM
CCOC(=O)Nc1nc2ccc(Cn3cccc3)cc2[nH]1	–	25.1 µM	–	17.7 µM	–	21.2 µM	–	> 100 µM	–	7.09 µM	–	> 100 µM	–	> 100 µM	–	> 64.8 µM	–	26.2 µM	–	> 100 µM
COc1ccc([N+](=O)[O-])c2c(NCCCN(C)C)c3ccccc3nc12	–	> 100 µM	–	0.26 µM	–	23.5 µM	–	0.206 µM	–	1.49 µM	–	13.4 µM	–	2.38 µM	–	2.05 µM	–	0.531 µM	–	0.285 µM
COC(=O)CCc1cc(OC)c2c(c1)C(C(=O)OC)C(c1ccc(OC)c(OC)c1)O2 (configuration not stated)	–	> 100 µM	> 100 µM and 21.6 µM	> 100 µM	> 100 µM and 26.8 µM	> 100 µM	–	> 100 µM	> 100 µM and 11.1 µM	> 100 µM and 47.3 µM	21.9 µM and > 100 µM	> 100 µM	> 100 µM and 39.6 µM	> 100 µM	> 100 µM and 13.3 µM	> 100 µM	–	> 100 µM	> 100 µM and 16.7 µM	> 100 µM
O=C(O[C@H]1CN[C@H](C#Cc2cc3ncnc(Nc4ccc5c(ccn5Cc5cc(F)ccc5F)c4)c3s2)C1)N1CCOCC1	5.59 µM	24.9 µM	3.16 µM	6.86 µM	3.7 µM	> 23.2 µM	4.51 µM	16.5 µM	3.42 µM	7.83 µM	4.06 µM	7.98 µM	0.0183 µM	0.106 µM	3.61 µM	8.25 µM	4.2 µM	10.6 µM	4.1 µM	9.3 µM
